Here are results for one compound from article PMC5463993, “Identification of an Efflux Transporter LmrB Regulating Stress Response and Extracellular Polysaccharide Synthesis in Streptococcus mutans” (Frontiers in Microbiology, 2017).

This test concerns the target T1, LmrB (Streptococcus mutans, UniProt Q8DUY5).
T1 construct: full-length (454 aa) with His-tag from pET28a, expressed in E. coli BL21 (DE3) cells; tested in whole cells
As to the kind of experiment: fluorometric efflux assay in E. coli BL21 (DE3) expressing LmrB versus empty vector. It is filed as cell-based. Conditions: EtBr-loaded whole cells in PBS; CCCP (100 uM) as control blocker.

T1 sequence (Q8DUY5 entry or part of it): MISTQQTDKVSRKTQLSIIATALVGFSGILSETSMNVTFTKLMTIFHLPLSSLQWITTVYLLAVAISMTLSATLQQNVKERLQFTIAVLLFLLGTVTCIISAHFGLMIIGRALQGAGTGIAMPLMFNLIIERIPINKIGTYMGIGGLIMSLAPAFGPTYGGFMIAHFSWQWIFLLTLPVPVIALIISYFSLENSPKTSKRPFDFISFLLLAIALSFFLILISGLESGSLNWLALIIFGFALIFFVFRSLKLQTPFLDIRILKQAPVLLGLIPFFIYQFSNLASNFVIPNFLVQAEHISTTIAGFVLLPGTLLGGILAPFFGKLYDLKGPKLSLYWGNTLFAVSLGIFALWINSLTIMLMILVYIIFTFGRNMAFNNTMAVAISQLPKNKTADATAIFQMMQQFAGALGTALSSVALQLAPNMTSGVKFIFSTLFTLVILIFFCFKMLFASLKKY

Regarding `CC[n+]1c(-c2ccccc2)c2cc(N)ccc2c2ccc(N)cc21` [Ethidium bromide], the “fluorometric efflux assay in E. coli BL21 (DE3) expressing LmrB versus empty vec” value is on record as “the efflux activity of E. coli was higher for the bacterial culture harboring cloned pET28a-lmrB”.
